Measurements published in ChEMBL document CHEMBL4483862, “Open-source discovery of chemical leads for next-generation chemoprotective antimalarials” (2018).

Test system: Plasmodium berghei
Assay: Luciferase/luciferin-expressing antifolate-resistant parasites were used to infect a culture of HepG2 cells that were pre-incubated with compounds. Infected hepatocytes emit light due to the luciferase reaction. Assay results are presented as the percent inhibition of light emission compared to control. […]
Format: functional
Conditions: sporozoite; for IC90: read-out: LUCIFERASE INFECTION ASSAY - IC90

SMILES	IC90 [µM]	also measured
COc1ccccc1N1C(C)=CC(=C(C#N)c2nc3ccccc3s2)C=C1C	> 10	IC50 (FFLUC_HILL_SLOPE 10.1, FFLUC_R_SQUARED 0.663, HEPG2TOX_HILL_SLOPE 9.46, HEPG2TOX_R_SQUARED 0.504, PBLUC_HILL_SLOPE 1.94, PBLUC_R_SQUARED 0.582, read-out: LUCIFERASE INFECTION ASSAY - IC50): 3.83 µM
C=CCn1c(SCc2cn3c(C)cccc3n2)nc2sc(C)c(C)c2c1=O	> 10	IC50 (FFLUC_HILL_SLOPE 10.3, FFLUC_R_SQUARED 0.131, HEPG2TOX_HILL_SLOPE 7.8, HEPG2TOX_R_SQUARED 0.483, read-out: LUCIFERASE INFECTION ASSAY - IC50): > 10 µM
COc1cc(/C=C2\C(=O)c3ccccc3S(=O)(=O)N2C(C)C)ccc1O	2.85	IC50 (FFLUC_HILL_SLOPE 10, FFLUC_R_SQUARED 0.0898, HEPG2TOX_HILL_SLOPE 4.33, HEPG2TOX_R_SQUARED 0.977, PBLUC_HILL_SLOPE 2.02, PBLUC_R_SQUARED 0.77, read-out: LUCIFERASE INFECTION ASSAY - IC50): 0.957 µM
Cc1ccc(-n2c(C)cc(C(=O)CN(c3ccccc3)S(=O)(=O)c3ccc(F)cc3)c2C)cc1C	> 10	IC50 (FFLUC_HILL_SLOPE 9.87, FFLUC_R_SQUARED 0.464, read-out: LUCIFERASE INFECTION ASSAY - IC50): > 10 µM
CCCCCCCCCCCc1nnc(SCc2ccc(Cl)cc2)n1-c1ccccc1C(F)(F)F	> 6.3	IC50 (FFLUC_HILL_SLOPE 9.94, FFLUC_R_SQUARED 0.653, read-out: LUCIFERASE INFECTION ASSAY - IC50): > 6.3 µM
C=CCn1c(SCC(=O)Nc2sc(C)c(C)c2C(=O)OCC)nc2scc(-c3ccc(OC)cc3)c2c1=O	> 10	IC50 (FFLUC_HILL_SLOPE 9.8, FFLUC_R_SQUARED 0.347, HEPG2TOX_HILL_SLOPE 0.0825, HEPG2TOX_R_SQUARED 0.0539, PBLUC_HILL_SLOPE 3.18, PBLUC_R_SQUARED 0.293, read-out: LUCIFERASE INFECTION ASSAY - IC50): 5.66 µM
C=CCn1c2ccccc2c2ccccc21	> 15.9	IC50 (FFLUC_HILL_SLOPE 10.4, FFLUC_R_SQUARED 0.117, read-out: LUCIFERASE INFECTION ASSAY - IC50): > 15.9 µM
Brc1cnc(N2CCN(C(c3ccccc3)(c3ccccc3)c3ccccc3)CC2)nc1	> 6.8	IC50 (FFLUC_HILL_SLOPE 9.83, FFLUC_R_SQUARED 0.0243, read-out: LUCIFERASE INFECTION ASSAY - IC50): > 6.8 µM
COc1cc(Cl)c(C)cc1-n1c(SCc2nnc(-c3cccs3)o2)nc2ccccc2c1=O	> 10	IC50 (FFLUC_HILL_SLOPE 9.81, FFLUC_R_SQUARED 0.743, PBLUC_HILL_SLOPE 8.4, PBLUC_R_SQUARED 0.579, read-out: LUCIFERASE INFECTION ASSAY - IC50): 8.6 µM
Cc1ccc(-c2nc(SCc3nc(=O)c4c(-c5ccccc5)csc4[nH]3)[nH]c2-c2ccc(C)cc2)cc1	> 10	IC50 (FFLUC_HILL_SLOPE 10.3, FFLUC_R_SQUARED 0.755, read-out: LUCIFERASE INFECTION ASSAY - IC50): > 10 µM
O=C(COc1ccc2[nH]c3ccccc3c(=O)c2c1)N1c2ccccc2OCC1c1ccccc1 (configuration not stated)	0.0412	IC50 (FFLUC_HILL_SLOPE 10.4, FFLUC_R_SQUARED 0.204, PBLUC_HILL_SLOPE 2.2, PBLUC_R_SQUARED 0.922, read-out: LUCIFERASE INFECTION ASSAY - IC50): 0.0152 µM
Cc1cc(C)c2nc(N(Cc3ccccc3)C(=O)c3nc(S(C)(=O)=O)ncc3Cl)sc2c1	> 10	IC50 (FFLUC_HILL_SLOPE 9.88, FFLUC_R_SQUARED 0.449, HEPG2TOX_HILL_SLOPE 6.61, HEPG2TOX_R_SQUARED 0.275, PBLUC_HILL_SLOPE 4.15, PBLUC_R_SQUARED 0.619, read-out: LUCIFERASE INFECTION ASSAY - IC50): 6.34 µM
CC(NC(=O)c1ccccc1NC(=O)CSc1ccc2c3c(cccc13)CC2)c1ccccc1 (configuration not stated)	> 10	IC50 (FFLUC_HILL_SLOPE 9.73, FFLUC_R_SQUARED 0.624, HEPG2TOX_HILL_SLOPE 6.39, HEPG2TOX_R_SQUARED 0.223, read-out: LUCIFERASE INFECTION ASSAY - IC50): > 10 µM
O=C1Nc2ccc([N+](=O)[O-])cc2C1=C(c1nc2ccccc2s1)c1nc2ccccc2s1	> 10	IC50 (FFLUC_HILL_SLOPE 9.66, FFLUC_R_SQUARED 0.665, read-out: LUCIFERASE INFECTION ASSAY - IC50): > 10 µM
CCn1c2ccccc2c2cc(NC(=O)C(C)OC(=O)C3C(C(=O)OC)=C(C)NC(C)=C3C(=O)OC)ccc21 (configuration not stated)	> 10	IC50 (FFLUC_HILL_SLOPE 9.58, FFLUC_R_SQUARED 0.157, read-out: LUCIFERASE INFECTION ASSAY - IC50): > 10 µM
O=C(COc1ccc([N+](=O)[O-])c2cccnc12)Nc1ccc(C(F)(F)F)cc1	> 10	IC50 (FFLUC_HILL_SLOPE 10, FFLUC_R_SQUARED 0.0627, PBLUC_HILL_SLOPE 68.1, PBLUC_R_SQUARED 0.146, read-out: LUCIFERASE INFECTION ASSAY - IC50): 9.89 µM

SMILES	IC90 [µM]	also measured
O=C1Nc2ccc(Cl)cc2/C1=C/c1nn(Cc2ccccc2)cc1-c1cccnc1	> 10	IC50 (FFLUC_HILL_SLOPE 9.69, FFLUC_R_SQUARED 0.424, PBLUC_HILL_SLOPE 9.27, PBLUC_R_SQUARED 0.306, read-out: LUCIFERASE INFECTION ASSAY - IC50): 8.59 µM
CCOC(=O)c1c(N)sc(Cc2sc(N)c(C(=O)OCC)c2-c2ccccc2)c1-c1ccccc1	5.92	IC50 (FFLUC_HILL_SLOPE 10.1, FFLUC_R_SQUARED 0.631, HEPG2TOX_HILL_SLOPE 3.62, HEPG2TOX_R_SQUARED 0.944, PBLUC_HILL_SLOPE 88.7, PBLUC_R_SQUARED 0.482, read-out: LUCIFERASE INFECTION ASSAY - IC50): 5.77 µM
O=S(=O)(Nc1ccc(Cl)cc1)c1cc(NC(=S)Nc2ccc(Oc3ccccc3)cc2)ccc1N1CCCCC1	> 10	IC50 (FFLUC_HILL_SLOPE 10.3, FFLUC_R_SQUARED 0.0303, PBLUC_HILL_SLOPE 13.4, PBLUC_R_SQUARED 0.215, read-out: LUCIFERASE INFECTION ASSAY - IC50): > 10 µM
CC(C)N(C(=O)CSC1=NC(c2ccccc2)C2=C(N1)/C(=C/c1ccccc1)CCC2)c1ccccc1 (configuration not stated)	9.39	IC50 (FFLUC_HILL_SLOPE 9.66, FFLUC_R_SQUARED 0.711, HEPG2TOX_HILL_SLOPE 8.12, HEPG2TOX_R_SQUARED 0.779, PBLUC_HILL_SLOPE 2.67, PBLUC_R_SQUARED 0.724, read-out: LUCIFERASE INFECTION ASSAY - IC50): 4.12 µM
CCN(CCO)c1ccc(NC2=C(NC(C)=O)C(=O)c3ccccc3C2=O)cc1	> 10	IC50 (FFLUC_HILL_SLOPE 10.4, FFLUC_R_SQUARED 0.141, HEPG2TOX_HILL_SLOPE 0.681, HEPG2TOX_R_SQUARED 0.905, PBLUC_HILL_SLOPE 1.27, PBLUC_R_SQUARED 0.687, read-out: LUCIFERASE INFECTION ASSAY - IC50): 2.16 µM
CC(OC(=O)c1cc2ccccc2cc1O)C(=O)Nc1cccc(S(=O)(=O)N2CCOCC2)c1 (configuration not stated)	> 10	IC50 (FFLUC_HILL_SLOPE 10.4, FFLUC_R_SQUARED 0.221, read-out: LUCIFERASE INFECTION ASSAY - IC50): > 10 µM
CS(=O)(=O)C(C#N)=Cc1ccccc1OCc1c(Cl)cccc1Cl	> 8.63	IC50 (FFLUC_HILL_SLOPE 9.87, FFLUC_R_SQUARED 0.717, read-out: LUCIFERASE INFECTION ASSAY - IC50): > 8.63 µM
FC(F)(F)c1cc(Nc2ncnc3sc(-c4ccccc4)cc23)ccc1Cl	> 10	IC50 (FFLUC_HILL_SLOPE 9.86, FFLUC_R_SQUARED 0.42, HEPG2TOX_HILL_SLOPE 7.8, HEPG2TOX_R_SQUARED 0.241, read-out: LUCIFERASE INFECTION ASSAY - IC50): > 10 µM
CCc1sc2nc(SCC(=O)NC(C)(C#N)C(C)C)n(Cc3ccc(C)cc3)c(=O)c2c1C (configuration not stated)	> 10	IC50 (FFLUC_HILL_SLOPE 10, FFLUC_R_SQUARED 0.698, read-out: LUCIFERASE INFECTION ASSAY - IC50): > 10 µM
CCOC(=O)c1sc(SC)c2c1CCc1c[nH]nc1-2	> 11.2	IC50 (FFLUC_HILL_SLOPE 10.3, FFLUC_R_SQUARED 0.371, read-out: LUCIFERASE INFECTION ASSAY - IC50): > 11.2 µM
O=C(NCc1ccccc1)C1=CN2CCN(Cc3cccc(Cl)c3)C(=O)N=C2O1	> 10	IC50 (FFLUC_HILL_SLOPE 9.9, FFLUC_R_SQUARED 0.0641, read-out: LUCIFERASE INFECTION ASSAY - IC50): > 10 µM
COc1cc(-c2cnc3cnc(-c4ccccc4C)cn23)ccc1O	5.32	IC50 (FFLUC_HILL_SLOPE 9.6, FFLUC_R_SQUARED 0.0922, HEPG2TOX_HILL_SLOPE 3.65, HEPG2TOX_R_SQUARED 0.847, PBLUC_HILL_SLOPE 7.45, PBLUC_R_SQUARED 0.397, read-out: LUCIFERASE INFECTION ASSAY - IC50): 3.96 µM
CC(C)Cc1ccc(C(=O)CC(Sc2ccccc2N)c2ccc(C(F)(F)F)cc2)cc1 (configuration not stated)	0.452	IC50 (FFLUC_HILL_SLOPE 10.1, FFLUC_R_SQUARED 0.429, PBLUC_HILL_SLOPE 1.99, PBLUC_R_SQUARED 0.752, read-out: LUCIFERASE INFECTION ASSAY - IC50): 0.15 µM
Cc1cc2[nH]c(C)cc(=O)n2n1	> 20.2	IC50 (FFLUC_HILL_SLOPE 10.3, FFLUC_R_SQUARED 0.148, read-out: LUCIFERASE INFECTION ASSAY - IC50): > 20.2 µM
CCCCNC(=O)c1c(NC(=O)c2cc(F)cc(F)c2)nc2ccccn12	1.17	IC50 (FFLUC_HILL_SLOPE 9.87, FFLUC_R_SQUARED 0.392, HEPG2TOX_HILL_SLOPE 0.611, HEPG2TOX_R_SQUARED 0.894, PBLUC_HILL_SLOPE 4.02, PBLUC_R_SQUARED 0.616, read-out: LUCIFERASE INFECTION ASSAY - IC50): 0.679 µM
